For the assay, the target named is recombinant DYRK1A kinase (Homo sapiens (Human), UniProt Q13627). Put plainly: DYRK1A kinase assay (Ser/Thr 18 peptide Z-lyte FRET assay). It is filed as biochemical. As to conditions: DYRK1A kinase activity; 15 μM ATP, 1 h room temperature; method text calls the value IC50. In short, it runs like this:
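FRET Z-lyte read-out (coumarin/fluorescein ratio, % phosphorylation) after 1 h development; IC50 from non-linear curve fit. Reaction: 0.25 μg/mL recombinant human DYRK1A, Ser/Thr 18 peptide 4 μM, ATP 15 μM, compound in 11-point 1:3 series from 10 μM, 1 h, room temperature, duplicate wells.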

With `Cn1cc(-c2ncnc3[nH]cc(-c4ccc5ncccc5c4)c23)cn1` [Compound 1897, 6-(4-(1-methyl-1H-pyrazol-4-yl)-7H-pyrrolo[2,3-d]pyrimidin-5-yl)quinoline], the EC50 is 18.1 nM.

As to `c1cnc2ccc(-c3c[nH]c4ncnc(N[C@H]5CC[C@H](N6CCOCC6)CC5)c34)cc2c1` [Compound 1898, N-(trans-4-Morpholinocyclohexyl)-5-(quinolin-6-yl)-7H-pyrrolo[2,3-d]pyrimidin-4-amine], the EC50 was 7.5 nM.

For `Cc1nc(OCC2CCN(C)CC2)c2c(-c3ccc4ncccc4c3)c[nH]c2n1` [Compound 1899, 6-(2-Methyl-4-((1-methylpiperidin-4-yl)methoxy)-7H-pyrrolo[2,3-d]pyrimidin-5-yl)quinoline], the EC50 was 18.6 nM.

Turning to `CC(C)(C)CNc1ncc2c(-c3ccc4nccnc4c3)c[nH]c2n1` [Compound 1911, N-Neopentyl-5-(quinoxalin-6-yl)-7H-pyrrolo[2,3-d]pyrimidin-2-amine], the EC50 stood at 117 nM.

Turning to `C[C@@H](Nc1ncc2c(-c3ccc4nccnc4c3)c[nH]c2n1)C(F)(F)F` [Compound 1916, (R)-5-(Quinoxalin-6-yl)-N-(1,1,1-trifluoropropan-2-yl)-7H-pyrrolo[2,3-d]pyrimidin-2-amine], the EC50 came to 6 nM.

As for `CN1CCC(Nc2ncc3c(-c4ccc5nccnc5c4)c[nH]c3n2)CC1` [Compound 1932, N-(1-Methylpiperidin-4-yl)-5-(quinoxalin-6-yl)-7H-pyrrolo[2,3-d]pyrimidin-2-amine], the EC50 was determined as 12.5 nM.

Regarding `c1cnc2cc(-c3c[nH]c4nc(NC5CCOCC5)ncc34)ccc2n1` [Compound 1934, 5-(Quinoxalin-6-yl)-N-(tetrahydro-2H-pyran-4-yl)-7H-pyrrolo[2,3-d]pyrimidin-2-amine], the EC50 came out at 7.8 nM.

As for `CN1CCN(c2ccc(Nc3ncc4c(-c5ccc6nccnc6c5)c[nH]c4n3)cn2)CC1` [Compound 1938, N-(6-(4-Methylpiperazin-1-yl)pyridin-3-yl)-5-(quinoxalin-6-yl)-7H-pyrrolo [2,3-d]pyrimidin-2-amine], the EC50 is 3.3 nM.

`CC(C)(F)CNc1ncc2c(-c3ccc4ncncc4c3)c[nH]c2n1` [Compound 1956, N-(2-Fluoro-2-methylpropyl)-5-(quinazolin-6-yl)-7H-pyrrolo[2,3-d]pyrimidin-2-amine]: the EC50 was 11.9 nM.

With `CN1CCN(c2ccc(CNc3ncc4c(-c5ccc6ncncc6c5)c[nH]c4n3)cn2)CC1` [Compound 1982, N-((6-(4-Methylpiperazin-1-yl)pyridin-3-yl)methyl)-5-(quinazolin-6-yl)-7H-pyrrolo[2,3-d]pyrimidin-2-amine], the half-maximal effective concentration (EC50) turned out to be 2.9 nM.

On to `CN1CCN(c2ncnc3ccc(-c4c[nH]c5nc(N)ncc45)cc23)CC1` [Compound 1986, 5-(4-(4-Methylpiperazin-1-yl)quinazolin-6-yl)-7H-pyrrolo[2,3-d]pyrimidin-2-amine], for which the 50% effective concentration (EC50) amounted to 41.6 nM.

Take `CN1CCN(c2ncnc3ccc(-c4c[nH]c5nc(C6CC6)ncc45)cc23)CC1` [Compound 1987, 6-(2-Cyclopropyl-7H-pyrrolo[2,3-d]pyrimidin-5-yl)-4-(4-methylpiperazin-1-yl)quinazoline]: the EC50 was 70.4 nM.

Regarding `CN1CCC(Oc2cnc3ccc(-c4c[nH]c5nc(N)ncc45)cc3n2)CC1` [Compound 1994, 5-(3-((1-Methylpiperidin-4-yl)oxy)quinoxalin-6-yl)-7H-pyrrolo[2,3-d]pyrimidin-2-amine], the EC50 was 13.8 nM.

Take `CN1CCN(c2cc(Nc3ncc4c(-c5ccn6ncc(-c7cccnc7)c6c5)c[nH]c4n3)ccn2)CC1` [Compound 2031, N-(2-(4-methylpiperazin-1-yl)pyridin-4-yl)-5-(3-(pyridin-3-yl)pyrazolo[1,5-a]pyridin-5-yl)-7H-pyrrolo[2,3-d]pyrimidin-2-amine]: the EC50 is 12.8 nM.

`CNc1ncc2c(-c3ccn4ncc(C(=O)N5CCN(C)CC5)c4c3)c[nH]c2n1` [Compound 2032, (5-(2-(Methylamino)-7H-pyrrolo[2,3-d]pyrimidin-5-yl)pyrazolo[1,5-a]pyridin-3-yl)(4-methylpiperazin-1-yl)methanone]: the EC50 is 58.8 nM.

For `CO[C@H]1C[C@@H](Nc2ncc3c(-c4ccc5nccn5n4)c[nH]c3n2)C1` [Compound 2053, 5-(Imidazo[1,2-b]pyridazin-6-yl)-N-(cis-3-methoxycyclobutyl)-7H-pyrrolo [2,3-d]pyrimidin-2-amine], the EC50 came out at 1.9 nM.

Take `CO[C@H]1C[C@@H](Nc2ncc3c(-c4ccn5nccc5n4)c[nH]c3n2)C1` [Compound 2070, N-(cis-3-Methoxycyclobutyl)-5-(pyrazolo[1,5-a]pyrimidin-5-yl)-7H-pyrrolo [2,3-d]pyrimidin-2-amine]: the EC50 stood at 2.9 nM.

For `CO[C@H]1C[C@@H](Nc2ncc3c(-c4ccc5ncccc5c4)c[nH]c3n2)C1` [Compound 2075, N-(cis-3-Methoxycyclobutyl)-5-(quinolin-6-yl)-7H-pyrrolo[2,3-d]pyrimidin-2-amine], the EC50 worked out at 8 nM.

For `CO[C@H]1C[C@@H](Nc2ncc3c(-c4ccc5nccnc5c4)c[nH]c3n2)C1` [Compound 2076, N-(cis-3-Methoxycyclobutyl)-5-(quinoxalin-6-yl)-7H-pyrrolo[2,3-d]pyrimidin-2-amine], the EC50 was 5.7 nM.

On to `FC(F)(F)O[C@H]1CC[C@@H](Nc2ncc3c(-c4ccn5nccc5c4)c[nH]c3n2)CC1` [Compound 2104, 5-(Pyrazolo[1,5-a]pyridin-5-yl)-N-(cis-4-(trifluoromethoxy)cyclohexyl)-7H-pyrrolo[2,3-d]pyrimidin-2-amine], for which the EC50 was 690 nM.

`CCO[C@H]1CC[C@@H](Nc2ncc3c(-c4cc(F)c5nccn5c4)c[nH]c3n2)CC1` [Compound 2129, N-(cis-4-Ethoxycyclohexyl)-5-(8-fluoroimidazo[1,2-a]pyridin-6-yl)-7H-pyrrolo[2,3-d]pyrimidin-2-amine]: the EC50 was 2.4 nM.

Turning to `CCO[C@H]1CC[C@@H](Nc2ncc3c(-c4ccc5nnn(C)c5c4)c[nH]c3n2)CC1` [Compound 2143, N-(cis-4-Ethoxycyclohexyl)-5-(1-methyl-1H-benzo[d][1,2,3]triazol-6-yl)-7H-pyrrolo[2,3-d]pyrimidin-2-amine], the EC50 turned out to be 9.9 nM.

On to `CCO[C@H]1CC[C@@H](Nc2ncc3c(-c4ccc5nccn5n4)c[nH]c3n2)CC1` [Compound 2145, N-(cis-4-Ethoxycyclohexyl)-5-(imidazo[1,2-b]pyridazin-6-yl)-7H-pyrrolo [2,3-d]pyrimidin-2-amine], for which the EC50 came to 3 nM.

Regarding `CCO[C@H]1CC[C@@H](Nc2ncc3c(-c4ccn5nccc5n4)c[nH]c3n2)CC1` [Compound 2162, N-(cis-4-Ethoxycyclohexyl)-5-(pyrazolo[1,5-a]pyrimidin-5-yl)-7H-pyrrolo [2,3-d]pyrimidin-2-amine], the EC50 is 8.5 nM.

For `[2H]C([2H])([2H])O[C@H]1CC[C@@H](Nc2ncc3c(-c4ccc5nccn5n4)c[nH]c3n2)CC1` [Compound 2171, 5-(Imidazo[1,2-b]pyridazin-6-yl)-N-(cis-4-(methoxy-d3)cyclohexyl)-7H-pyrrolo[2,3-d]pyrimidin-2-amine], the EC50 was 1.5 nM.

Regarding `[2H]C([2H])([2H])O[C@H]1CC[C@@H](Nc2ncc3c(-c4ccc5nnn(C)c5c4)c[nH]c3n2)CC1` [Compound 2172, N-(cis-4-(Methoxy-d3)cyclohexyl)-5-(1-methyl-1H-benzo[d][1,2,3]triazol-6-yl)-7H-pyrrolo[2,3-d]pyrimidin-2-amine], the EC50 amounted to 5 nM.

Turning to `[2H]C([2H])([2H])O[C@H]1CC[C@@H](Nc2ncc3c(-c4ccc5nccnc5c4)c[nH]c3n2)CC1` [Compound 2173, N-(cis-4-(Methoxy-d3)cyclohexyl)-5-(quinoxalin-6-yl)-7H-pyrrolo[2,3-d]pyrimidin-2-amine], the EC50 is 10.5 nM.

As for `COc1nc(N[C@H](C)C(F)(F)F)nc2[nH]cc(-c3ccc4nccn4c3)c12` [Compound 2174, (R)-5-(Imidazo[1,2-a]pyridin-6-yl)-4-methoxy-N-(1,1,1-trifluoropropan-2-yl)-7H-pyrrolo[2,3-d]pyrimidin-2-amine], the EC50 is 1.6 nM.

As to `COC[C@@H](C)Nc1nc(OC)c2c(-c3ccc4nccn4c3)c[nH]c2n1` [Compound 2175, (R)-5-(Imidazo[1,2-a]pyridin-6-yl)-4-methoxy-N-(1-methoxypropan-2-yl)-7H-pyrrolo[2,3-d]pyrimidin-2-amine], the EC50 turned out to be 74.9 nM.

For the molecule `COc1nc(N[C@H]2CC[C@@H](OCC(F)F)CC2)nc2[nH]cc(-c3ccc4nccn4c3)c12` [Compound 2176, N-(cis-4-(2,2-Difluoroethoxy)cyclohexyl)-5-(imidazo[1,2-a]pyridin-6-yl)-4-methoxy-7H-pyrrolo[2,3-d]pyrimidin-2-amine], the EC50 came out at 2.1 nM.

With `CCOc1nc(N[C@H](C)C(F)(F)F)nc2[nH]cc(-c3ccc4nccn4c3)c12` [Compound 2177, (R)-4-Ethoxy-5-(imidazo[1,2-a]pyridin-6-yl)-N-(1,1,1-trifluoropropan-2-yl)-7H-pyrrolo[2,3-d]pyrimidin-2-amine], the EC50 worked out at 10.3 nM.

On to `C[C@@H](Nc1nc(OCCO)c2c(-c3ccc4nccn4c3)c[nH]c2n1)C(F)(F)F` [Compound 2178, (R)-2-((5-(imidazo[1,2-a]pyridin-6-yl)-2-((1,1,1-trifluoropropan-2-yl)amino)-7H-pyrrolo[2,3-d]pyrimidin-4-yl)oxy)ethan-1-ol], for which the EC50 worked out at 6.8 nM.

In the case of `C[C@]1(O)CC[C@@H](Nc2ncc3c(-c4cc(F)c5nccn5c4)c[nH]c3n2)CC1` [Compound 2179, cis-4-((5-(8-Fluoroimidazo[1,2-a]pyridin-6-yl)-7H-pyrrolo[2,3-d]pyrimidin-2-yl)amino)-1-methylcyclohexan-1-ol], the EC50 came to 2.2 nM.

In the case of `[2H]C([2H])([2H])O[C@H]1CC[C@@H](Nc2ncc3c(-c4cc(F)c5nccn5c4)c[nH]c3n2)CC1` [Compound 2180, 5-(8-Fluoroimidazo[1,2-a]pyridin-6-yl)-N-(cis-4-(methoxy-d3)cyclohexyl)-7H-pyrrolo[2,3-d]pyrimidin-2-amine], the EC50 amounted to 3.9 nM.

Values taken from patent US20250129104A1, “7H-PYRROLO[2,3-D]PYRIMIDINES AND PREPARATION AND USES THEREOF” (BioSplice Therapeutics, Inc., priority 2021, published 2025).
